Tests used:
Test in all cases: Test B preemergence/postemergence greenhouse plant response rating 0 to 10
cocklebur = assay type: in vivo, Xanthium pensylvanicum; conditions: for Plant response rating, Cocklebur: 0 to 10 scale
Method in brief: (§1)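 Test chemicals were sprayed onto freshly planted seed and, concurrently, onto young plants between the one and four leaf stage. After a twelve- to sixteen-day greenhouse period, each species was visually compared with untreated controls.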

sorghum = assay type: in vivo, Sorghum bicolor; conditions: for Plant response rating, Sorghum: 0 to 10 scale
Method in brief: as §1

wild oat = assay type: in vivo, Avena fatua; conditions: for Plant response rating, Wild oat: 0 to 10 scale
Method in brief: as §1

soybean = assay type: in vivo, Glycine max; conditions: for Plant response rating, Soybean: 0 to 10 scale
Method in brief: as §1

rice = assay type: in vivo, Oryza sativa; conditions: for Plant response rating, Rice: 0 to 10 scale
Method in brief: as §1

sugar beet = assay type: in vivo, Beta vulgaris; conditions: for Plant response rating, Sugar beet: 0 to 10 scale
Method in brief: as §1

giant foxtail = assay type: in vivo, Setaria faberii; conditions: for Plant response rating, Giant foxtail: 0 to 10 scale
Method in brief: as §1

purple nutsedge = assay type: in vivo, Cyperus rotundus; conditions: for Plant response rating, Nutsedge: 0 to 10 scale
Method in brief: as §1

corn = assay type: in vivo, Zea mays; conditions: for Plant response rating, Corn: 0 to 10 scale
Method in brief: as §1

rape = assay type: in vivo, Brassica napus; conditions: for Plant response rating, Rape: 0 to 10 scale
Method in brief: as §1

wheat = assay type: in vivo, Triticum aestivum; conditions: for Plant response rating, Wheat: 0 to 10 scale
Method in brief: as §1

barnyardgrass = assay type: in vivo, Echinochloa crus-galli; conditions: for Plant response rating, Barnyardgrass: 0 to 10 scale
Method in brief: as §1

wild buckwheat = assay type: in vivo, Polygonum convolvulus; conditions: for Plant response rating, Wild buckwheat: 0 to 10 scale
Method in brief: as §1

morningglory = assay type: in vivo, Ipomoea hederacea; conditions: for Plant response rating, Morningglory: 0 to 10 scale
Method in brief: as §1

cotton = assay type: in vivo, Gossypium hirsutum; conditions: for Plant response rating, Cotton: 0 to 10 scale
Method in brief: as §1

bedstraw = assay type: in vivo, Galium aparine; conditions: for Plant response rating, Bedstraw: 0 to 10 scale
Method in brief: as §1

blackgrass = assay type: in vivo, Alopecurus myosuroides; conditions: for Plant response rating, Blackgrass: POSTEMERGENCE, 0 to 10 scale
Method in brief: as §1

velvetleaf = assay type: in vivo, Abutilon theophrasti; conditions: for Plant response rating, Velvetleaf: 0 to 10 scale
Method in brief: as §1

crabgrass = assay type: in vivo, Digitaria spp.; conditions: for Plant response rating, Crabgrass: 0 to 10 scale
Method in brief: as §1

cheatgrass = assay type: in vivo, Bromus secalinus; conditions: for Plant response rating, Cheatgrass: 0 to 10 scale
Method in brief: as §1

lambsquarters = assay type: in vivo, Chenopodium album; conditions: for Plant response rating, Lambsquarter: 0 to 10 scale
Method in brief: as §1

chickweed = assay type: in vivo, Stellaria media; conditions: for Plant response rating, Chickweed: 0 to 10 scale
Method in brief: as §1

barley = assay type: in vivo, Hordeum vulgare; conditions: for Plant response rating, Barley: 0 to 10 scale
Method in brief: as §1

With `Clc1cc(Cl)c(-c2nn3c(c2Cl)CCCC3)cc1OCC1CC1` [Compound 69] the “Plant response rating, Cocklebur” value (cocklebur; POSTEMERGENCE, Rate 50 g/ha) was 8, the “Plant response rating, Cocklebur” value (cocklebur; PREEMERGENCE, Rate 50 g/ha) was 0 and the “Plant response rating (0 to 10 scale), Cocklebur” value (cocklebur; PREEMERGENCE, Rate 200 g/ha) was 0. For the same compound, the “Plant response rating, Cocklebur” value (cocklebur; Rate 200 g/ha, POSTEMERGENCE) was 8, the “Plant response rating, Sorghum” value (sorghum; POSTEMERGENCE, Rate 50 g/ha) was 4 and the “Plant response rating, Sorghum” value (sorghum; PREEMERGENCE, Rate 50 g/ha) was 0. For the same compound, the “Plant response rating (0 to 10 scale), Sorghum” value (sorghum; PREEMERGENCE, Rate 200 g/ha) was 0, the “Plant response rating, Sorghum” value (sorghum; Rate 200 g/ha, POSTEMERGENCE) was 6 and the “Plant response rating, Wild oat” value (wild oat; POSTEMERGENCE, Rate 50 g/ha) was 3. For the same compound, the “Plant response rating, Wild oat” value (wild oat; PREEMERGENCE, Rate 50 g/ha) was 0, the “Plant response rating (0 to 10 scale), Wild oat” value (wild oat; PREEMERGENCE, Rate 200 g/ha) was 0 and the “Plant response rating, Wild oat” value (wild oat; Rate 200 g/ha, POSTEMERGENCE) was 4. The “Plant response rating, Soybean” value (soybean; POSTEMERGENCE, Rate 50 g/ha) was 2, the “Plant response rating, Soybean” value (soybean; PREEMERGENCE, Rate 50 g/ha) was 0 and the “Plant response rating (0 to 10 scale), Soybean” value (soybean; PREEMERGENCE, Rate 200 g/ha) was 0. For the same compound, the “Plant response rating, Soybean” value (soybean; Rate 200 g/ha, POSTEMERGENCE) was 5, the “Plant response rating, Rice” value (rice; POSTEMERGENCE, Rate 50 g/ha) was 5 and the “Plant response rating, Rice” value (rice; PREEMERGENCE, Rate 50 g/ha) was 0. The “Plant response rating (0 to 10 scale), Rice” value (rice; PREEMERGENCE, Rate 200 g/ha) was 0, the “Plant response rating, Rice” value (rice; Rate 200 g/ha, POSTEMERGENCE) was 6 and the “Plant response rating, Sugar beet” value (sugar beet; POSTEMERGENCE, Rate 50 g/ha) was 10. The “Plant response rating, Sugar beet” value (sugar beet; PREEMERGENCE, Rate 50 g/ha) was 3, the “Plant response rating (0 to 10 scale), Sugar beet” value (sugar beet; PREEMERGENCE, Rate 200 g/ha) was 6 and the “Plant response rating, Sugar beet” value (sugar beet; Rate 200 g/ha, POSTEMERGENCE) was 9. The “Plant response rating, Giant foxtail” value (giant foxtail; POSTEMERGENCE, Rate 50 g/ha) was 5, the “Plant response rating, Giant foxtail” value (giant foxtail; PREEMERGENCE, Rate 50 g/ha) was 2 and the “Plant response rating (0 to 10 scale), Giant foxtail” value (giant foxtail; PREEMERGENCE, Rate 200 g/ha) was 5. For the same compound, the “Plant response rating, Giant foxtail” value (giant foxtail; Rate 200 g/ha, POSTEMERGENCE) was 5, the “Plant response rating, Nutsedge” value (purple nutsedge; POSTEMERGENCE, Rate 50 g/ha) was 2 and the “Plant response rating, Nutsedge” value (purple nutsedge; PREEMERGENCE, Rate 50 g/ha) was 0. For the same compound, the “Plant response rating (0 to 10 scale), Nutsedge” value (purple nutsedge; PREEMERGENCE, Rate 200 g/ha) was 0, the “Plant response rating, Nutsedge” value (purple nutsedge; Rate 200 g/ha, POSTEMERGENCE) was 2 and the “Plant response rating, Corn” value (corn; POSTEMERGENCE, Rate 50 g/ha) was 3. For the same compound, the “Plant response rating, Corn” value (corn; PREEMERGENCE, Rate 50 g/ha) was 0, the “Plant response rating (0 to 10 scale), Corn” value (corn; PREEMERGENCE, Rate 200 g/ha) was 0 and the “Plant response rating, Corn” value (corn; Rate 200 g/ha, POSTEMERGENCE) was 3. For the same compound, the “Plant response rating, Rape” value (rape; POSTEMERGENCE, Rate 50 g/ha) was 6, the “Plant response rating, Rape” value (rape; PREEMERGENCE, Rate 50 g/ha) was 2 and the “Plant response rating (0 to 10 scale), Rape” value (rape; PREEMERGENCE, Rate 200 g/ha) was 3. The “Plant response rating, Rape” value (rape; Rate 200 g/ha, POSTEMERGENCE) was 8, the “Plant response rating, Wheat” value (wheat; POSTEMERGENCE, Rate 50 g/ha) was 4 and the “Plant response rating, Wheat” value (wheat; PREEMERGENCE, Rate 50 g/ha) was 0. For the same compound, the “Plant response rating (0 to 10 scale), Wheat” value (wheat; PREEMERGENCE, Rate 200 g/ha) was 2, the “Plant response rating, Wheat” value (wheat; Rate 200 g/ha, POSTEMERGENCE) was 6 and the “Plant response rating, Barnyardgrass” value (barnyardgrass; POSTEMERGENCE, Rate 50 g/ha) was 4. For the same compound, the “Plant response rating, Barnyardgrass” value (barnyardgrass; PREEMERGENCE, Rate 50 g/ha) was 0, the “Plant response rating (0 to 10 scale), Barnyardgrass” value (barnyardgrass; PREEMERGENCE, Rate 200 g/ha) was 1 and the “Plant response rating, Barnyardgrass” value (barnyardgrass; Rate 200 g/ha, POSTEMERGENCE) was 6. For the same compound, the “Plant response rating, Wild buckwheat” value (wild buckwheat; POSTEMERGENCE, Rate 50 g/ha) was 10, the “Plant response rating, Wild buckwheat” value (wild buckwheat; PREEMERGENCE, Rate 50 g/ha) was 0 and the “Plant response rating (0 to 10 scale), Wild buckwheat” value (wild buckwheat; PREEMERGENCE, Rate 200 g/ha) was 0. The “Plant response rating, Wild buckwheat” value (wild buckwheat; Rate 200 g/ha, POSTEMERGENCE) was 10, the “Plant response rating, Morningglory” value (morningglory; POSTEMERGENCE, Rate 50 g/ha) was 7 and the “Plant response rating, Morningglory” value (morningglory; PREEMERGENCE, Rate 50 g/ha) was 0. The “Plant response rating (0 to 10 scale), Morningglory” value (morningglory; PREEMERGENCE, Rate 200 g/ha) was 0, the “Plant response rating, Morningglory” value (morningglory; Rate 200 g/ha, POSTEMERGENCE) was 7 and the “Plant response rating, Cotton” value (cotton; POSTEMERGENCE, Rate 50 g/ha) was 10. The “Plant response rating, Cotton” value (cotton; PREEMERGENCE, Rate 50 g/ha) was 0, the “Plant response rating (0 to 10 scale), Cotton” value (cotton; PREEMERGENCE, Rate 200 g/ha) was 0 and the “Plant response rating, Cotton” value (cotton; Rate 200 g/ha, POSTEMERGENCE) was 10. For the same compound, the “Plant response rating, Bedstraw” value (bedstraw; POSTEMERGENCE, Rate 50 g/ha) was 5, the “Plant response rating, Bedstraw” value (bedstraw; PREEMERGENCE, Rate 50 g/ha) was 0 and the “Plant response rating (0 to 10 scale), Bedstraw” value (bedstraw; PREEMERGENCE, Rate 200 g/ha) was 6. For the same compound, the “Plant response rating, Bedstraw” value (bedstraw; Rate 200 g/ha, POSTEMERGENCE) was 7, the “Plant response rating, Blackgrass” value (blackgrass; Rate 50 g/ha) was 3 and the “Plant response rating (0 to 10 scale), Blackgrass” value (blackgrass; PREEMERGENCE, Rate 200 g/ha) was 2. For the same compound, the “Plant response rating, Blackgrass” value (blackgrass; Rate 200 g/ha) was 5, the “Plant response rating, Velvetleaf” value (velvetleaf; POSTEMERGENCE, Rate 50 g/ha) was 10 and the “Plant response rating, Velvetleaf” value (velvetleaf; PREEMERGENCE, Rate 50 g/ha) was 1. The “Plant response rating (0 to 10 scale), Velvetleaf” value (velvetleaf; PREEMERGENCE, Rate 200 g/ha) was 9, the “Plant response rating, Velvetleaf” value (velvetleaf; Rate 200 g/ha, POSTEMERGENCE) was 9 and the “Plant response rating, Crabgrass” value (crabgrass; POSTEMERGENCE, Rate 50 g/ha) was 4. For the same compound, the “Plant response rating, Crabgrass” value (crabgrass; PREEMERGENCE, Rate 50 g/ha) was 2, the “Plant response rating (0 to 10 scale), Crabgrass” value (crabgrass; PREEMERGENCE, Rate 200 g/ha) was 5 and the “Plant response rating, Crabgrass” value (crabgrass; Rate 200 g/ha, POSTEMERGENCE) was 4. The “Plant response rating, Cheatgrass” value (cheatgrass; POSTEMERGENCE, Rate 50 g/ha) was 3, the “Plant response rating, Cheatgrass” value (cheatgrass; PREEMERGENCE, Rate 50 g/ha) was 0 and the “Plant response rating (0 to 10 scale), Cheatgrass” value (cheatgrass; PREEMERGENCE, Rate 200 g/ha) was 4. For the same compound, the “Plant response rating, Cheatgrass” value (cheatgrass; Rate 200 g/ha, POSTEMERGENCE) was 6, the “Plant response rating, Lambsquarter” value (lambsquarters; POSTEMERGENCE, Rate 50 g/ha) was 8 and the “Plant response rating, Lambsquarter” value (lambsquarters; PREEMERGENCE, Rate 50 g/ha) was 9. For the same compound, the “Plant response rating (0 to 10 scale), Lambsquarter” value (lambsquarters; PREEMERGENCE, Rate 200 g/ha) was 10, the “Plant response rating, Lambsquarter” value (lambsquarters; Rate 200 g/ha, POSTEMERGENCE) was 8 and the “Plant response rating, Chickweed” value (chickweed; POSTEMERGENCE, Rate 50 g/ha) was 2. The “Plant response rating, Chickweed” value (chickweed; PREEMERGENCE, Rate 50 g/ha) was 0, the “Plant response rating (0 to 10 scale), Chickweed” value (chickweed; PREEMERGENCE, Rate 200 g/ha) was 0 and the “Plant response rating, Chickweed” value (chickweed; Rate 200 g/ha, POSTEMERGENCE) was 3. The “Plant response rating, Barley” value (barley; POSTEMERGENCE, Rate 50 g/ha) was 4, the “Plant response rating, Barley” value (barley; PREEMERGENCE, Rate 50 g/ha) was 0 and the “Plant response rating (0 to 10 scale), Barley” value (barley; PREEMERGENCE, Rate 200 g/ha) was 0. For the same compound, the “Plant response rating, Barley” value (barley; Rate 200 g/ha, POSTEMERGENCE) was 4.

From US6358885B1, “Substituted phenylheterocyclic herbicides” (Mississippi State University, priority 1992, dated 2002)
